Measurements taken from article PMC10085937 (Clinical Pharmacokinetics, 2023).
Entries after “also recorded” stand apart in the source; their conditions may differ. Where two headings read alike, the source gives them in different places.

What was measured:
[1] = assay type: in vivo, human; settings: for Effect of multiple-dose cilofexor on rosuvastatin exposure (AUC and Cmax): rosuvastatin 10 mg; for Effect of multiple-dose cilofexor on rosuvastatin exposure (AUC and Cmax) / Effect of multiple-dose cilofexor on pravastatin exposure (AUC and Cmax): vs alone; for Effect of multiple-dose cilofexor on pravastatin exposure (AUC and Cmax): pravastatin 40 mg; for Effect of multiple-dose cilofexor on midazolam exposure (AUC and Cmax): midazolam 2 mg, vs midazolam alone
[2] = tested on: organic cation transporter (OCT)2; settings: in vitro; cited from earlier work
[3] = dose range of 10 to 100 mg; cited from earlier work
[4] = cited from earlier work
OATP2B1 [5] = settings: in vitro; ref data on file, Gilead Sciences, Inc.; cited from earlier work
OATP1B1 [6] = settings: in vitro; cited from earlier work
MATE2-K = settings: in vitro; cited from earlier work
CYP3A [7] = settings: in vitro; cited from earlier work
P-glycoprotein (P-gp) = settings: in vitro; cited from earlier work
NTCP = settings: in vitro; cited from earlier work
[8] = assay type: in vivo, human; settings: for Effect of grapefruit juice on cilofexor exposure (AUC and Cmax): grapefruit juice 16 ounces; for Effect of grapefruit juice on cilofexor exposure (AUC and Cmax) / Effect of multiple-dose voriconazole on cilofexor exposure (AUC): vs cilofexor alone; for Effect of multiple-dose voriconazole on cilofexor exposure (AUC): voriconazole 200 mg BID
[9] = tested on: organic anion transporter (OAT)1; settings: in vitro; cited from earlier work
[10] = tested on: multidrug and toxin extrusion protein (MATE) 1; settings: in vitro; cited from earlier work
[11] = tested on: breast cancer resistance protein (BCRP); settings: in vitro; cited from earlier work
[12] = tested on: sodium taurocholate co-transporting polypeptide (NTCP); settings: in vitro; cited from earlier work
OATP2B1 [13] = settings: in vitro; cited from earlier work
CYP2C8 [14] = settings: in vitro; cited from earlier work
[15] = cited from earlier work; remark: listed apart in the source
bile salt export pump = settings: in vitro; cited from earlier work
CYP2C8 [16] = settings: in vitro; rCYP2C8 showing the fastest rate of metabolism; cited from earlier work
P-gp = settings: in vitro; cited from earlier work
CYP3A [17] = settings: in vitro; cited from earlier work; remark: listed apart in the source
BCRP = settings: in vitro; cited from earlier work
CYP2C19 = settings: in vitro; cited from earlier work
OATP1B1 [18] = settings: in vitro; ref data on file, Gilead Sciences, Inc.; cited from earlier work
OATP1B3 [19] = settings: in vitro; ref data on file, Gilead Sciences, Inc.; cited from earlier work
OATP1B3 [20] = settings: in vitro; cited from earlier work
CYP2C9 = settings: in vitro; cited from earlier work
OAT3 = settings: in vitro; cited from earlier work
[21] = following multiple-dose rifampin 600 mg
[22] = with multiple-dose gemfibrozil 600 mg BID
[23] = with single-dose cyclosporine 600 mg
[24] = with single-dose rifampin 600 mg

## CC(C)c1nc(N(C)S(C)(=O)=O)nc(-c2ccc(F)cc2)c1/C=C/[C@@H](O)C[C@@H](O)CC(=O)O [rosuvastatin]
[1]
  Effect of multiple-dose cilofexor on rosuvastatin exposure (AUC and Cmax): did not alter
[1]; listed as Rosuvastatin
  Effect of multiple-dose cilofexor on rosuvastatin exposure (AUC and Cmax): similar

## CC[C@H](C)C(=O)O[C@H]1C[C@H](O)C=C2C=C[C@H](C)[C@H](CC[C@@H](O)C[C@@H](O)CC(=O)O)[C@H]21 [pravastatin]
[1]
  Effect of multiple-dose cilofexor on pravastatin exposure (AUC and Cmax): did not affect; also recorded: did not alter
[1]; listed as Pravastatin
  Effect of multiple-dose cilofexor on pravastatin exposure (AUC and Cmax): similar

## O=C(O)c1ccnc(N2CC(O)(c3ccc(OCc4c(-c5c(Cl)cccc5Cl)noc4C4CC4)cc3Cl)C2)c1 [Cilofexor]
[2]
  Inhibition of OCT2: little to no inhibition
[3]
  Dose proportionality of plasma exposure: less than dose-proportional
[4]
  Protein binding in human plasma: > 99%
OATP2B1 [5]
  IC50: 210 nM
OATP1B1 [6]
  Substrate of OATP1B1: substrate
MATE2-K
  Inhibition of MATE2-K: little to no inhibition
CYP3A [7]
  Mechanism-based inhibition: not a mechanism-based inhibitor
P-glycoprotein (P-gp)
  Substrate of P-gp: substrate
NTCP
  Inhibition of NTCP: little to no inhibition
[8]; [21]
  Cilofexor AUC compared with cilofexor alone: 33%
  Cilofexor Cmax compared with cilofexor alone: 35%
[8]
  Effect of grapefruit juice on cilofexor exposure (AUC and Cmax): similar
  Effect of multiple-dose voriconazole on cilofexor exposure (AUC): similar
[8]; listed as cilofexor
  Effect of grapefruit juice on cilofexor exposure (AUC and Cmax): did not affect
  Effect of multiple-dose voriconazole on cilofexor exposure (AUC): did not affect; also recorded: did not impact
[8]; [22]
  Cilofexor AUC compared with cilofexor alone: 175%
  Cilofexor Cmax compared with cilofexor alone: 139%
[8]; with multiple-dose voriconazole
  Cilofexor Cmax lower than cilofexor alone: 23%
[8]; with single-dose cyclosporine
  Median cilofexor t½ longer than cilofexor alone: approximately 2.5 fold
[8]; [23]
  Cilofexor AUC compared with cilofexor alone: 651%
  Cilofexor Cmax compared with cilofexor alone: 512%
[8]; with single-dose rifampin
  Median cilofexor t½ longer than cilofexor alone: approximately 2.8 fold
[8]; [24]
  Cilofexor AUC compared with cilofexor alone: 795%
  Cilofexor Cmax compared with cilofexor alone: 547%
[9]
  Inhibition of OAT1: little to no inhibition
[10]
  Inhibition of MATE1: little to no inhibition
[11]
  Substrate of BCRP: substrate
[12]
  Substrate of NTCP: substrate
OATP2B1 [13]
  Substrate of OATP2B1: substrate
CYP2C8 [14]
  Mechanism-based inhibition: not a mechanism-based inhibitor
[15]
  Cilofexor dose eliminated in feces: 96.7%
  Dose remaining as intact cilofexor (feces): 34.1%
Bile salt export pump
  Inhibition of bile salt export pump: little to no inhibition
CYP2C8 [16]
  Substrate of CYP2C8: substrate
P-gp
  Inhibition of P-gp: little to no inhibition
CYP3A [17]
  Substrate of CYP3A: substrate
BCRP
  Inhibition of BCRP: little to no inhibition
CYP2C19
  Substrate of CYP2C19: substrate
OATP1B1 [18]
  IC50: 680 nM
OATP1B3 [19]
  IC50: 410 nM
OATP1B3 [20]
  Substrate of OATP1B3: substrate
CYP2C9
  Mechanism-based inhibition: not a mechanism-based inhibitor
OAT3
  Inhibition of OAT3: little to no inhibition

## CC(C)c1c(C(=O)Nc2ccccc2O)c(-c2ccccc2)c(-c2ccc(F)cc2)n1CC[C@@H](O)C[C@@H](O)CC(=O)O [o-OH-atorvastatin, o-hydroxyatorvastatin]
[1]; atorvastatin 10 mg
  o-OH-atorvastatin AUC and Cmax with multiple-dose cilofexor compared to atorvastatin alone: similar

## Cc1ncc2n1-c1ccc(Cl)cc1C(c1ccccc1F)=NC2 [midazolam]
[1]
  Effect of multiple-dose cilofexor on midazolam exposure (AUC and Cmax): did not affect; also recorded: did not alter
[1]; listed as Midazolam
  Effect of multiple-dose cilofexor on midazolam exposure (AUC and Cmax): similar
